Test results: ChEMBL document CHEMBL4028841, “The identification of novel acid isostere based inhibitors of the VPS10P family sorting receptor Sortilin” (Bioorg Med Chem Lett, 2017)
Activity calls are given as the source filed them. The calls are words filed in the database; no cut-off is given here.

Columns and labels:
Sortilin (Homo sapiens) = Sortilin (Homo sapiens) (UniProt Q99523); assay: Displacement of [3H]-neurotensin from human His6-tagged sortilin at 500 uM pretreated for 30 mins followed by [3H]-neurotensin addition after 6 hrs measured for 360 secs by SPA relative to control
Sortilin = target: T1, Sortilin (Homo sapiens, UniProt Q99523); assay: Displacement of [3H]-neurotensin from human His6-tagged sortilin pretreated for 30 mins followed by [3H]-neurotensin addition after 6 hrs measured for 360 secs by SPA
T1 sequence (Q99523 whole entry): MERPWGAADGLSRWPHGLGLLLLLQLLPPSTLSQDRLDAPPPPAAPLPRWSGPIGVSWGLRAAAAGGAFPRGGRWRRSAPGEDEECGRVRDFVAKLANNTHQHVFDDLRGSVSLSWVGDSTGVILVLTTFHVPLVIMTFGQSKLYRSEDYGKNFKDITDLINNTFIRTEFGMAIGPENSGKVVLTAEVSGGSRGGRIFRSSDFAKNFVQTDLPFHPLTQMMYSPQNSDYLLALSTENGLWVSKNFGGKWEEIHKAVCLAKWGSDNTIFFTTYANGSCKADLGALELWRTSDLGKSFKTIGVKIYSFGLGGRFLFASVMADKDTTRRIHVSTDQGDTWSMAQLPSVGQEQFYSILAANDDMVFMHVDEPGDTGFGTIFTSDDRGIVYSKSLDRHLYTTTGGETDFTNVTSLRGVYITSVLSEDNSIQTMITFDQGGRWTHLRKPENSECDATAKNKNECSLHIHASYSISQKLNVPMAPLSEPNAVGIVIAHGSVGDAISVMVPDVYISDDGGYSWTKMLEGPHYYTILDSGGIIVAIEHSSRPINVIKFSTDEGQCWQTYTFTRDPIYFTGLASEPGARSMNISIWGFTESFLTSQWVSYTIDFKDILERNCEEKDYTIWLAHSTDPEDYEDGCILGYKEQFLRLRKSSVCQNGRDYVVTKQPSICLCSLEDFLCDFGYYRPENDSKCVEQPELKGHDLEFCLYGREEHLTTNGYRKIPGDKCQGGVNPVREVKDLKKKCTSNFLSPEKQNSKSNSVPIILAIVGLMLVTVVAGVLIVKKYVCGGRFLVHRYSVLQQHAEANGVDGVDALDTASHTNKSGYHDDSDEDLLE

[1] = Dissociation constant, pKa of the compound in 29 to 54% methanol; assay type: physicochemical
MDR1 = assay: Permeability in MDCK cells expressing human MDR1 at 0.5 uM after 150 mins by LC-MS/MS analysis; assay type: ADME, cell-based, Canis lupus familiaris; conditions: dog, read-out: permeability

SMILES	Imax (Sortilin (Homo sapiens))	IC50 (Sortilin)	further results
O=C1CC(c2ccc(Cl)cc2)=NO1	inactive	–	–
CC(C)CCc1n[nH]c(=O)o1	–	63.1 µM	–
CC(C)CCN1N=NC(=O)C1NC(=O)c1ccncc1 (stereo not drawn)	–	20 µM	–
O=c1[nH]nc(-c2ccccc2)o1	–	126 µM	–
Cc1cccc(C(=O)NC2C(=O)N=NN2CCC(C)C)n1 (stereo not drawn)	–	39.8 µM	–
O=C1CN(c2cccc(Cl)c2)N=N1	inactive	–	–
CC(C)CCc1noc(=O)[nH]1	–	126 µM	–
O=C1CN(c2ccccc2Cl)N=N1	inactive	–	–
Oc1nc(-c2ccccc2)no1	35%	–	–
CC(C)CCN1N=NC(=O)C1C(=O)Nc1ccncc1 (stereo not drawn)	–	63.1 µM	–
O=C1CC(c2ccccc2Cl)=NO1	37%	–	–
O=C1CN(c2ccccc2)N=N1	50%	–	–
O=C1CC(c2cccc(Cl)c2)=NO1	30%	–	–
CC(C)CCC1=NOC(=O)C1	–	12.6 µM	–
O=c1[nH]c(Cc2ccccc2)no1	55%	–	–
O=c1[nH]c(-c2ccc(Cl)cc2)no1	inactive	–	–
Cc1cccc(NC(=O)C2C(=O)N=NN2CCC(C)C)n1 (stereo not drawn)	–	12.6 µM	–
CC(C)CCN1N=NC(=O)C1C (stereo not drawn)	–	79.4 µM	–
CC(C)CCN1CC(=O)N=N1	–	63.1 µM	pKa [1]: 7; Papp at 2.5 h, 0.5 µM (MDR1): 2.9 ×10⁻⁶ cm/s
O=c1[nH]nc(Cc2ccccc2)o1	54%	–	–
CC(C)CCN1N=NC(=O)C1C(N)=O (stereo not drawn)	–	50.1 µM	–

SMILES	Imax (Sortilin (Homo sapiens))	IC50 (Sortilin)	further results
O=c1[nH]nc(-c2ccccc2Cl)o1	63%	–	–
O=c1[nH]c(-c2ccccc2Cl)no1	inactive	–	–
O=C1CC(c2ccccc2)=NO1	–	158 µM	–
CC(C)CCN1N=NC(=O)C1C(C)C (stereo not drawn)	< 20%	–	–
O=C1CN(Cc2ccccc2)N=N1	–	126 µM	–
CC(C)CC1=NOC(=O)C1	–	31.6 µM	–
O=c1[nH]nc(-c2ccc(Cl)cc2)o1	inactive	–	–
Cc1cccc(NC(=O)c2ccc(C(F)(F)F)cc2C(=O)O)n1	–	–	Papp at 2.5 h, 0.5 µM (MDR1): 0.3 ×10⁻⁶ cm/s
CC(=O)NC1C(=O)N=NN1CCC(C)C (stereo not drawn)	–	31.6 µM	Papp at 2.5 h, 0.5 µM (MDR1): < 0.1 ×10⁻⁶ cm/s
CC(C)CN1CC(=O)N=N1	69%	–	–
CC(C)CCN1N=NC(=O)C1NC(=O)c1cccnc1 (stereo not drawn)	–	12.6 µM	Papp at 2.5 h, 0.5 µM (MDR1): < 0.1 ×10⁻⁶ cm/s
CC(C)CCN1N=NC(=O)C1C(=O)Nc1cccnc1 (stereo not drawn)	–	3.98 µM	Papp at 2.5 h, 0.5 µM (MDR1): 2.9 ×10⁻⁶ cm/s
O=c1[nH]nc(-c2cccc(Cl)c2)o1	inactive	–	–
CCC1C(=O)N=NN1CCC(C)C (stereo not drawn)	57%	–	–
CC(C)Cc1n[nH]c(=O)o1	60%	–	–
O=C1CN(c2ccc(Cl)cc2)N=N1	inactive	–	–
CNC(=O)C1C(=O)N=NN1CCC(C)C (stereo not drawn)	–	39.8 µM	Papp at 2.5 h, 0.5 µM (MDR1): < 0.1 ×10⁻⁶ cm/s
O=c1[nH]c(-c2cccc(Cl)c2)no1	42%	–	–
O=C1CC(Cc2ccccc2)=NO1	–	79.4 µM	–
Cn1nnc(O)c1CC(N)C(=O)O (stereo not drawn)	–	–	pKa [1]: 6.4
O=c1cc(-c2ccccc2)o[nH]1	inactive	–	–
